The source of these data is patent US11576916B2, “Methods of preventing or treating ophthalmic diseases” (KINARUS AG, priority 2017, dated 2023).

Structures can show the parent of a compound that is named as a salt.

Experiment [1] has as its system choroidal neovascularization (CNV) in a mouse model of age-related macular degeneration. Kind of experiment: Laser-induced CNV mouse model of AMD: isolectin B4 staining of choroidal flat-mounts (CNV lesion area). Type of experiment: in vivo, C57BL/6J mice. The note with it: for Formation of CNV in mice, in words: conclusion of the study, versus vehicle. As to the method:
(§1) CNV (choroidal neovascularization) in mice or rats is an accepted model to mimic the wet form of age-related macular degeneration (AMD). The model is induced by laser photocoagulation which creates breaks in Bruchs membrane. The subsequent pathological cascade includes inflammation, angiogenesis and proteolysis.
(§2) A study in a mouse model was performed to evaluate the efficacy of pioglitazone and pamapimod each alone or in combination on the development of CNV. Three laser burns were used to induce CNV in the eyes of C57Bl/6J mice. Pioglitazone or pamapimod or the combination of pioglitazone/pamapimod were administered orally once daily to groups of animals starting one day prior to lasering.
(§3) Male 7-week old C57BL/6J mice (Janvier Labs, France) were obtained and housed at a constant temperature (22±+1° C.) in a light-controlled environment with ad libitum access to food and water.
(§4) For CNV induction, animals were anesthetized with an intraperitoneal injection of ketamine (37.5 mg/kg; Ketalar, Pfizer Oy Animal Health, Helsinki, Finland) and medetomidine (0.45 mg/kg; Domitor, Orion Oy, Espoo, Finland). A drop of 0.5% tropicamid (Santen) was applied on the cornea to dilate the pupils. Laser photocoagulation was performed once using a 532 nm diode laser Lumenis Novus Spectra (Lumenis Ltd., Israel) attached to a slit lamp. A coverslip and Viscotears® gel (Novartis) were used to applanate the cornea. Three laser lesions were performed per eye. Following lasering, anesthesia was reversed by u2-antagonist medetomidine, atipamezole (0.5 mg/kg i.p., Antisedan, Orion Pharma, Espoo, Finland).
(§5) Oral drug formulations were prepared in a vehicle adjusted to 4.8±0.05 using buffer. Test compounds [pioglitazone HCl (2.5 mg/ml), pamapimod (10 mg/ml) and combination pioglitazone HCl (2.5 mg/ml)+pamapimod (10 mg/ml)] were formulated in this vehicle and sonicated prior to administration (approx. 3 min).
Aflibercept (Eylea®, Bayer Pharma AG) was purchased as a ready-to-use solution for intravitreal injections at a concentration of 40 mg of aflibercept in 1 ml solution. The dose of 80 μg (injection volume of 2 μl) of aflibercept per mouse eye was used in the present study. […]
The flat-mount choroids were stained with fluorescein-labeled isolectin B4 (Vector Laboratories) to detect lesion CNV area and imaged using Leica DM IRBE microscope (Leica Microsystems, Germany) with an epifluorescent attachment and analyzed using Image J software (v.1.51f, National Institutes of Health, USA).
Quantitative data was graphed and analyzed using GraphPad Prism software (v. 7.0, GraphPad Software Inc.). […]

Experiment [2] has the same test system. The experiment in a line: Laser-induced CNV mouse model of AMD: retinal thickness by SD-OCT. Type of experiment: in vivo, C57BL/6J mice. The note with it: after 14 days of treatment; for Difference in retinal thickness in CNV area as compared to the total retinal thickness: mean ± SD per lesion, vehicle 19.9 ± 20.7; for Difference in retinal thickness in CNV area as compared to the total retinal thickness / Total retinal thickness: SD-OCT, pioglitazone/pamapimod oral once daily, aflibercept 80 μg IVT per eye; for Total retinal thickness: mean ± SD; for CNV area retinal thickness, comparison between treatments (in words): versus vehicle, single agents or positive control aflibercept. The protocol:
as §1, §2, §3, §4, §5
Aflibercept (Eylea®, Bayer Pharma AG) was purchased as a ready-to-use solution for intravitreal injections at a concentration of 40 mg of aflibercept in 1 ml solution. The dose of 80 μg (injection volume of 2 μl) of aflibercept per mouse eye was used in the present study.
Compounds were administered either orally by gastric lavage (pioglitazone, pamapimod) at a dose of 0.2 ml volume per 20 g mouse weight or by IVT (aflibercept) using a 5 μl glass microsyringe (Hamilton Bonaduz AG, Bonaduz, Switzerland). Aflibercept was injected only into the lasered right eye. The injection volume was 2 μl per eye.
CNV lesions were monitored using Envisu R2200 SD-OCT (Spectral Domain Optical Coherence Tomography system; Bioptigen Inc./Leica) in anesthetized mice as described above. The thickness of each retina was measured from 24 sites of randomly overlaid grid and at all three lasered sites. The total retinal thickness was considered as the thickness of all layers from nerve fiber layer to RPE (healthy measurement sites) or to an implied line connecting the RPE around the site of damage (lasered sites).
Quantitative data was graphed and analyzed using GraphPad Prism software (v. 7.0, GraphPad Software Inc.). The D'Agostino & Pearson normality test was used for each parameter. […] Differences were considered to be statistically significant at the P<0.05 level.

As to “Aflibercept: Aflibercept (Eylea®, Bayer Pharma AG), ready-to-use solution for intravitreal injections; positive control”, the “Formation of CNV in mice, in words” value in experiment [1] is “significantly decreased”. Further, in experiment [2], the “Difference in retinal thickness in CNV area as compared to the total retinal thickness” value (from here on “Difference in retinal thickness”) is recorded as 16.1±26.7% and the Total retinal thickness came out at 215.7 ± 6.5 μm.

Regarding `CCc1ccc(CCOc2ccc(CC3SC(=O)NC3=O)cc2)nc1` (centres unmarked) [STR001, pioglitazone HCl, reference compound], in experiment [1], the “Formation of CNV in mice, in words” value was “significantly decreased”. The “CNV area retinal thickness, comparison between treatments (in words)” value in experiment [2] is on record as “superior to the positive control Aflibercept”. The “Difference in retinal thickness” value turned out to be 9.86 ± 17.7% in experiment [2] (HCl) and 9.86±17.7% in experiment [2] (listed as pioglitazone, HCl). For the same molecule, the Total retinal thickness in experiment [2] turned out to be 215.8 ± 2.9 μm.

On to `Cn1c(=O)c(Oc2ccc(F)cc2F)cc2cnc(NC(CCO)CCO)nc21` [STR002, 6-(2,4-Difluorophenoxy)-2-[3-hydroxy-1-(2-hydroxyethyl)-propylamino]-8-methyl-8H-pyrido[2,3-d]pyrimidin-7-one], for which the “Isolectin B4 positive area per CNV lesion (new vessel area), in words” value in experiment [1] (choroidal flat-mounts, after 14 days of treatment, Kruskal-Wallis test with Dunn's multiple comparisons) is listed as “significantly different from the pioglitazone alone group”. Moreover, the “Formation of CNV in mice, in words” value in experiment [1] is “significantly decreased”. For the same molecule, in experiment [2], the “CNV area retinal thickness, comparison between treatments (in words)” value is “superior to the positive control Aflibercept”; the “Difference in retinal thickness” value was found to be 7.75 ± 22.4%; the Total retinal thickness came to 216.2 ± 6.0 μm. The “Difference in retinal thickness” value in experiment [2] (listed as pamapimod) was found to be 7.75±22.4%.
